# Values joined by “and” are separate entries in the source; they are usually repeats but may differ in a detail not shown here. Identical values can stand only once.
# Target: T1, MOR (Mu opioid Receptor) (Homo sapiens, UniProt P35372)
# T1 construct: expressed in transfected cells
# Assay: cAMP agonistic activity assay, MOR stably transfected cell line
# Type: cell-based
# Details: not given
# Method: (§1) 1. Test purpose: to detect the agonistic activity of compound samples utilizing MOR (Mu opioid Receptor), KOR(Kappa opioid receptor), and DOR (Delta Opioid Receptor) stably transfected cell lines and using the established cAMP assay detection platform.
# (§2) a. All samples were dissolved with DMSO to a storage concentration of 30 mM.
# (§3) b. A sample dilution sequence was prepared on a 384-well LDV plate. The first concentration point is 6 mM, with a 3.162-fold serial dilution and a total of 11 concentration points.
# (§4) c. The sample dilution sequence was transferred to an test plate (Corning-3824) using the Echo machine, corresponding to transfer of 50 nL per well.
# (§5) d. 50 nL of HPE or ZPE was transferred to the corresponding location of the test plate using the Echo machine.
# (§6) 2.2 Test operation of cAMP agonistic activity detection
# (§7) a. Assay buffer and stimulation buffer (STB) required for the test were formulated.
# (§8) b. 5 μL of STB was firstly added to each well of the test plate (with 50 nL of compound already in the well), and then 5 μL of cell suspension was added thereto.
# (§9) c. The test plate was incubated in a constant temperature incubator at 37° C.
# (§10) d. A standard concentration curve of cAMP was created. The first concentration point was 2848 nM, with a 4-fold serial dilution and a total of 16 detection concentrations, and each concentration point was in triplicate.
# (§11) e. cAMP detection reagent (Cisbio #62AM4PEJ) was added to the sample test plate and cAMP standard concentration test plate. 5 μL of D2 reagent was added first, and then 5 μL of Cryptate reagent was added.
# (§12) f. The test plates were read on the Envision after being left for 60 minutes at room temperature.
# T1 sequence (P35372 whole entry, species assumed): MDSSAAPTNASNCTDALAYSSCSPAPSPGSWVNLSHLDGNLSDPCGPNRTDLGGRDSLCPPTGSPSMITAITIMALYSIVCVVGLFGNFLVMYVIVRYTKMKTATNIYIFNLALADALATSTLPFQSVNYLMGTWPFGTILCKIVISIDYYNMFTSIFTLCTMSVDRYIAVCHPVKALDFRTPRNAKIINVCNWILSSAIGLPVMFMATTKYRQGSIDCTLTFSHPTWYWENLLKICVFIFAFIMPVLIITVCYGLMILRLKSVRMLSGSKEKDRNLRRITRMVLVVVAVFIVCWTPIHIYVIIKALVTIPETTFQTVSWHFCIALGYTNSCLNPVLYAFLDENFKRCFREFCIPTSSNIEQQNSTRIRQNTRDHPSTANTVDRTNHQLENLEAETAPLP
row,SMILES,EC50 [µM]
1,COc1ccc2occ(CNCC[C@@]3(c4ccccn4)CCOC4(CCCC4)C3)c2c1 [Example 1],0.00021
2,c1ccc([C@]2(CCNCc3coc4ccccc34)CCOC3(CCCC3)C2)nc1 [Example 2],0.0029

# Same assay, conditions: ratio of EC50 to TRV130
row,SMILES,EC50 against μ receptor relative to that of TRV130
1,COc1ccc2occ(CNCC[C@@]3(c4ccccn4)CCOC4(CCCC4)C3)c2c1 [Example 1],about 1/10
2,c1ccc([C@]2(CCNCc3coc4ccccc34)CCOC3(CCCC3)C2)nc1 [Example 2],the same order of magnitude

# Test system: colonic motility (glass bead expulsion) in mice
# Assay: Mouse colonic glass bead expulsion time test
# Type: in vivo
# Details: C57BL/6 mice, 1 mg/kg single tail vein injection, beads inserted 20 min after administration, limit 120 min, Mean ± S.E.M., n = 10
# Method: 1. Test purpose: to test the effect of the test compound on the expulsion time of colonic glass beads from mice, and to preliminarily investigate its inhibitory effect on colonic motility.
# Administered via tail vein injection at an equal dose of 1 mg/kg;
# After 6-7 days of adaptive feeding of C57BL/6 mice, the animals fasted with free access to water for 12-16 hours and then randomly divided into 10 groups, 10 mice per group. Each group employed a single administration via tail vein, and the administration volume was 10 mL/kg. The solvent control group was given a vehicle (normal saline) via tail vein. 20 min after the administration, glass beads preheated to 37° C. with a diameter of 2 mm were pushed into the rectum at a distance of 2 cm through the anus. Timing was immediately started and the animals were placed individually in the observation cage to observe the time for the glass beads to be expulsed (the observation time limit was 120 min). If the glass beads had not been expulsed by the end of the observation period, the animals were euthanized and the rectum was dissected to confirm that the glass beads were still in the intestinal tract.
# Colonic Expulsion Rate (CER)=number of animals that successfully expulsed glass beads during the observation period/total number of animals in this group×100%;
# Expulsion Time Prolonging Rate (ETPR)=(mean expulsion time of test sample group—mean expulsion time of solvent control group)/mean expulsion time of solvent control group×100%;
# Percent Maximum Possible Effect (% Maximum Possible Effect, Percent MPE)=(mean expulsion time of test sample group—mean expulsion time of solvent control group)/(120-mean expulsion time of solvent control group)×100%; Calculation and related statistical processing were performed on the test data using Microsoft Office Excel 2007 and GraphPad Prism software. Unless otherwise specified, the data were shown as mean±standard error (Mean±S.E.M.), and the comparison between groups was performed by one-way ANOVA, and the Dunnett's method was used for pairwise comparison test.
row,SMILES,Mean Expulsion Time
1,COc1ccc2occ(CNCC[C@@]3(c4ccccn4)CCOC4(CCCC4)C3)c2c1 [Example 1],17.40 ± 5.84^※※♦♦ min
2,c1ccc([C@]2(CCNCc3coc4ccccc34)CCOC3(CCCC3)C2)nc1 [Example 2],25.85 ± 5.88^※※♦ min

# Same assay, conditions: C57BL/6 mice, 1 mg/kg single tail vein injection, n = 10
row,SMILES,Percent Maximum Possible Effect (Percent MPE) [%]
1,COc1ccc2occ(CNCC[C@@]3(c4ccccn4)CCOC4(CCCC4)C3)c2c1 [Example 1],11.55
2,c1ccc([C@]2(CCNCc3coc4ccccc34)CCOC3(CCCC3)C2)nc1 [Example 2],18.83

# Same assay, conditions: C57BL/6 mice, 1 mg/kg single tail vein injection, relative to solvent control, n = 10
row,SMILES,Expulsion Time Prolonging Rate (ETPR) [%]
1,COc1ccc2occ(CNCC[C@@]3(c4ccccn4)CCOC4(CCCC4)C3)c2c1 [Example 1],333.92
2,c1ccc([C@]2(CCNCc3coc4ccccc34)CCOC3(CCCC3)C2)nc1 [Example 2],544.64

# Test system: thermal radiation tail-flick pain threshold in rats
# Assay: Rat thermal radiation tail-flick pain threshold test
# Type: in vivo, SD rats
# Details: 0.7 mg/kg tail vein injection, 0.5 h after administration, Mean ± SEM, n = 10
# Method: 1. Test purpose: to measure the effect of each compound sample on the pain threshold of rats by using the rat thermal radiation tail flick method.
# Administered via tail vein injection at an equal dose of 0.7 mg/kg;
# The rats (SD rats, SPF grade, with body weight of 220-250g, purchased from Beijing Vital River Laboratory Animal Technology Co., Ltd.) were firstly fixed in a special plastic cylinder, so that their tails were exposed and drooped naturally. Test was performed after the animals were quiet. […] The measured time interval was the tail-flick response latency, which is 3 s to 5 s in normal rats, and those with greater than 5 s or less than 3 s were excluded. Then, measurement was made every 5 min, and the mean of three measurements was taken as the basic nociceptive threshold. If the animal stayed more than 10 s under analgesic effect, the irradiation was stopped and 10 s was used as the upper limit of the tail flick latency to avoid burning the skin by the too-long irradiation. After the rats were given a certain dose of the drug, the pain thresholds of the rats were measured at different times.
# After the rats were given a certain dose of the drug, the pain threshold of the rats was measured at 0.5 h, 1 h, 2 h, and 3 h. The maximum percentage of analgesia (% MPE) after administration was calculated, of which the calculation formula was as follows: MPE(%)=(pain threshold after administration−pain threshold before administration)/(10s−pain threshold before administration))×100%
row,SMILES,Maximum percentage of analgesia (MPE) 0.5 h [%]
1,COc1ccc2occ(CNCC[C@@]3(c4ccccn4)CCOC4(CCCC4)C3)c2c1 [Example 1],100.00
2,c1ccc([C@]2(CCNCc3coc4ccccc34)CCOC3(CCCC3)C2)nc1 [Example 2],100.00

# Same assay, conditions: 0.7 mg/kg tail vein injection, 1 h after administration, Mean ± SEM, n = 10, 0.7 mg/kg
row,SMILES,Maximum percentage of analgesia (MPE) 1 h
1,COc1ccc2occ(CNCC[C@@]3(c4ccccn4)CCOC4(CCCC4)C3)c2c1 [Example 1],89.95±7.06% and 89.95%
2,c1ccc([C@]2(CCNCc3coc4ccccc34)CCOC3(CCCC3)C2)nc1 [Example 2],82.81±9.77% and 82.81%

# Same assay, conditions: 0.7 mg/kg tail vein injection, 2 h after administration, Mean ± SEM, n = 10, 0.7 mg/kg
row,SMILES,Maximum percentage of analgesia (MPE) 2 h
1,COc1ccc2occ(CNCC[C@@]3(c4ccccn4)CCOC4(CCCC4)C3)c2c1 [Example 1],86.51±10.06% and 86.51%
2,c1ccc([C@]2(CCNCc3coc4ccccc34)CCOC3(CCCC3)C2)nc1 [Example 2],79.23±10.51% and 79.23%

# Same assay, conditions: 0.7 mg/kg tail vein injection, 3 h after administration, Mean ± SEM, n = 10, 0.7 mg/kg
row,SMILES,Maximum percentage of analgesia (MPE) 3 h
1,COc1ccc2occ(CNCC[C@@]3(c4ccccn4)CCOC4(CCCC4)C3)c2c1 [Example 1],65.91±5.76% and 65.91%
2,c1ccc([C@]2(CCNCc3coc4ccccc34)CCOC3(CCCC3)C2)nc1 [Example 2],55.50±6.85% and 55.50%

# Test system: not listed separately
# Assay: Pharmacokinetic test after single tail vein injection
# Type: in vivo
# Details: SD (Sprague-Dawley), rat, plasma, iv; SD rats, single tail vein injection 2 mg/kg, n = 3
# Method: 1. Test purpose: to investigate the pharmacokinetic parameters of each compound in the Experimental Example after a single tail vein administration.
# Administered via tail vein at an equal dose of 2 mg/kg;
# Blood was collected from the jugular vein before administration and 5 min, 10 min, 15 min, 20 min, 30 min, 45 min, 1h, 2h, 4h, 6h, 8h, 24 h after administration. 200 μL of whole blood was taken at each time point and was placed in an anticoagulation tube containing EDTA-K2, and centrifuged at 2000g at a low temperature of 4° C. to separate the plasma. The plasma was transferred to a microcentrifuge tube, and stored in a −80° C. refrigerator for later use.
# By establishing a reliable LC/MS/MS analysis method, the blood concentration of each sample was detected, and the pharmacokinetic parameters of each compound were calculated.
SMILES,AUC(0-t) [ng·h/mL],Cmax [ng/mL],Tmax [min],half-life [h]
COc1ccc2occ(CNCC[C@@]3(c4ccccn4)CCOC4(CCCC4)C3)c2c1 [Example 1],585 ± 25.9,601 ± 32.5,6.6 ± 3,3.17 ± 0.02
c1ccc([C@]2(CCNCc3coc4ccccc34)CCOC3(CCCC3)C2)nc1 [Example 2],379 ± 63.1,309 ± 43,9 ± 0.6,2.29 ± 0.13

# Target: T2, KOR(Kappa opioid receptor) (Homo sapiens, UniProt P41145)
# T2 construct: expressed in transfected cells
# T2 sequence (P41145 whole entry): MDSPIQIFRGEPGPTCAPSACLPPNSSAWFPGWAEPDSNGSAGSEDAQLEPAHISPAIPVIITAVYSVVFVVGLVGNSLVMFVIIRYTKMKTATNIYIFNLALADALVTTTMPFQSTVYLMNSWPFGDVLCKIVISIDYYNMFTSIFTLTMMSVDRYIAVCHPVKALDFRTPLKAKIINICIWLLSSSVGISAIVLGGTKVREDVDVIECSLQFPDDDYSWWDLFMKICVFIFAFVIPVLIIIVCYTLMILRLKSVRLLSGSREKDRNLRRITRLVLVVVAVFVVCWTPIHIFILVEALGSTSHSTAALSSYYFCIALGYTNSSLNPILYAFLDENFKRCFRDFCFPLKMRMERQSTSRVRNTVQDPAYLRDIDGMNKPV
# Assay: cAMP agonistic activity assay, KOR stably transfected cell line
# Type: cell-based
# Details: not given
# Method: as §1, §2, §3, §4, §5, §6, §7, §8, §9, §10, §11, §12
row,SMILES,EC50 [µM]
1,COc1ccc2occ(CNCC[C@@]3(c4ccccn4)CCOC4(CCCC4)C3)c2c1 [Example 1],51.4
2,c1ccc([C@]2(CCNCc3coc4ccccc34)CCOC3(CCCC3)C2)nc1 [Example 2],39.8

# Same assay, conditions: ratio of EC50 to TRV130
row,SMILES,EC50 against κ receptor relative to that of TRV130
1,c1ccc([C@]2(CCNCc3coc4ccccc34)CCOC3(CCCC3)C2)nc1 [Example 2],about 7 times

# Target: T3, DOR (Delta Opioid Receptor) (Homo sapiens, UniProt P41143)
# T3 construct: expressed in transfected cells
# T3 sequence (P41143 whole entry): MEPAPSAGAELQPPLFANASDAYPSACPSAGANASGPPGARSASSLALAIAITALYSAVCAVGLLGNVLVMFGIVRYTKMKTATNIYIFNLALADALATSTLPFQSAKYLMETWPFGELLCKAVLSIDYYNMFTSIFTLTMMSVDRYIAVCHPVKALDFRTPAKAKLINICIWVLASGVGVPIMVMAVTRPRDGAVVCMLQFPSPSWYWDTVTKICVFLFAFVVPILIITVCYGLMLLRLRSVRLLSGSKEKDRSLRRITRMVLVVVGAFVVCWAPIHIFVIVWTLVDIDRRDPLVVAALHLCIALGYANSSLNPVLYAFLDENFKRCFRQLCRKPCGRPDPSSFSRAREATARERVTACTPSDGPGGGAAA
# Assay: cAMP agonistic activity assay, DOR stably transfected cell line
# Type: cell-based
# Details: not given
# Method: as §1, §2, §3, §4, §5, §6, §7, §8, §9, §10, §11, §12
row,SMILES,EC50 [µM]
1,COc1ccc2occ(CNCC[C@@]3(c4ccccn4)CCOC4(CCCC4)C3)c2c1 [Example 1],65.3
2,c1ccc([C@]2(CCNCc3coc4ccccc34)CCOC3(CCCC3)C2)nc1 [Example 2],22.2

# Same assay, conditions: ratio of EC50 to TRV130
row,SMILES,EC50 against δ receptor relative to that of TRV130
1,c1ccc([C@]2(CCNCc3coc4ccccc34)CCOC3(CCCC3)C2)nc1 [Example 2],about 7 times
